Laboratory results: patent publication US20180008563A1 (priority 2015, published 2018)
Where two headings read alike, the source gives them in different places.

Experiments:
[1] = tested on: porcine epidemic diarrhea; assay: Treatment of porcine epidemic diarrhea of newborn suckling piglets (piglets and lactating sows treated); format: in vivo, pigs; conditions: diseased newborn suckling piglets; taurine 100 g per sow per day, 0.2 g per piglet per day
Procedure: Treatment of the porcine epidemic diarrhea on newborn piglets with taurine was implemented by orally administering a taurine solution to diseased suckling piglets and administering taurine to lactating sows, that is, simultaneous treatment of both the suckling piglets and the lactating sows.
the administration by drenching/mixed-feeding was carried out on the day when the disease occurred in the suckling piglets, and a non-interrupted administration lasted for 3-10 days. Lactating sows: non-interrupted oral administration lasted for 5-10 days.
the administration by drenching or mixed-feeding was carried out on the day when the disease occurred in the suckling piglets. The administration by drenching: 2% taurine solution at a dosage of 1-5 mL per time and it was taken 2-6 times per day. The administration by mixed-feeding: 1-20 g/L of taurine solution was drunk freely. Lactating sows: each sow was administered with 5-500 g of taurine per day and the administration was in a single dose or in divided doses.
40 litters of diseased newborn suckling piglets and sows thereof were selected and randomly divided into two groups equivalently. Control group: conventional supportive therapy (fluid infusion+antibiotic therapy+atropine sulfate); experimental group: treatment with taurine.
II. […]

[2] = tested on: porcine epidemic diarrhea; assay: Treatment of porcine epidemic diarrhea of weaned piglets, care pigs and finishing pigs; format: in vivo; conditions: taurine 300 mg per kilogram of body weight per day
Procedure: Treatment of the porcine epidemic diarrhea on the weaned piglets, the care pigs and the finishing pigs with taurine was implemented by orally administering taurine to the pigs, wherein the administration may be carried out by means of feeding in water or mixed feeding.
the administration was carried out from the day of occurrence of the disease, and in consideration of the use-cost, the drug administration time is preferably 3-30 days, and more preferably 7-14 days. The effect is subject to an obvious time-effect relationship.
(§1) 0.1-2% by weight of taurine was added in the daily-drinking water for the pigs to drink freely; or taurine accounting for 0.2-5% of the feed was added thereto, which is equivalent to a dosage of 100-10000 mg per kilogram of body weight per day of taurine, and the administration was in a single dose or in divided doses. The effect is subject to an obvious quantity-effect relationship.
60 diseased weaned piglets, 60 diseased care pigs and 60 diseased finishing pigs were selected, and were randomly divided into two groups equivalently. Control group: conventional supportive therapy (fluid infusion+antibiotic therapy+atropine sulfate); experimental group: treatment with taurine (the dosage of taurine was 300 mg per kilogram of body weight per day).
II. The pharmaceutical composition according to Embodiment 6 was used for the treatment of porcine epidemic diarrhea of the newborn piglets, weaned piglets, care pigs and finishing pigs. A mode of the administration for the newborn piglets was the same as the method in Embodiment 2, i.e. the administration by drenching and/or mixed-feeding was carried out on the day when the disease occurred in the suckling piglets. The administration by drenching: a solution with a mass concentration of 5% was prepared from the pharmaceutical composition in Embodiment 6 with a dosage of 2-4 mL per time and it was taken 2-6 times per day. The administration by mixed-feeding: 4 g/L of the solution was drunk freely. […]

[3] = tested on: rotavirus diarrhea; assay: Treatment of rotavirus diarrhea; format: in vivo, pigs
[4] = tested on: porcine transmissible gastroenteritis; format: in vivo, pigs
[5] = tested on: porcine epidemic diarrhea; assay: Prevention of porcine epidemic diarrhea of weaned piglets, care pigs and finishing pigs; format: in vivo; conditions: taurine 200 mg per kilogram of body weight per day
Procedure: Prevention of the porcine epidemic diarrhea on the weaned piglets, the care pigs and the finishing pigs with taurine was implemented by orally administering taurine to a swine herd, wherein the administration may be carried out by means of feeding in water or mixed feeding.
a preventative administration was carried out during an epidemic period of the disease, or in autumn, winter and spring when the temperature was low and changed greatly, that is, in the season when the porcine epidemic diarrhea frequently occurs. Generally, the administration can be carried out for a long-term. In consideration of the use-cost, the drug administration time is preferably 3-30 days, and more preferably, 7-14 days. The effect is subject to an obvious time-effect relationship.
as §1, with “0.005-2%” for “0.1-2%”, “in” for “in the”, “0.01-5% by weight” for “0.2-5%”, “50-10000” for “100-10000”
120 healthy weaned piglets, 120 healthy care pigs and 120 healthy finishing pigs were selected and randomly divided into two groups equivalently. Control group: conventional feeding; experimental group: conventional feeding+taurine (the dosage of taurine was 200 mg per kilogram of body weight per day).
I. The pharmaceutical composition according to Embodiment 6 was used for the prevention of porcine epidemic diarrhea of the newborn piglets, weaned piglets, care pigs and finishing pigs. Particularly, a mode of the administration for the newborn piglets was the same as the method in Embodiment 1, i.e. each pregnant sow was administered with 50 g of the pharmaceutical composition in Embodiment 6 per day, and the administration was in a single dose or in divided doses. […]

[6] = tested on: pseudorabies viral diarrhea; format: in vivo, pigs
[7] = tested on: PEDV; conditions: Kim et al., Virus Research (2013); cited from earlier work
[8] = tested on: epidemic diarrhea; conditions: diseased piglets, oral, a certain dose; cited from earlier work
[9] = care pigs, taurine dosage as in Embodiment 4 (300 mg per kilogram of body weight per day)
[10] = newborn piglets, taurine dosage as in Embodiment 2 (100 g per sow per day, 0.2 g per piglet per day)
[11] = weaned piglets, taurine dosage as in Embodiment 4 (300 mg per kilogram of body weight per day)

Q: For NCCS(=O)(=O)O [taurine, β-aminoethanesulfonic acid], which Prognosis [1] is on record?
A: Good

Q: And the Prognosis ([2]; diseased care pigs)?
A: Good

Q: And the Prognosis ([2]; diseased finishing pigs)?
A: Good

Q: And the Prognosis ([2]; diseased weaned piglets)?
A: Good

Q: What about the Prognosis [3, 9] of the same molecule?
A: Good

Q: What about the Prognosis [3, 10] of the same molecule?
A: Good

Q: What about the Prognosis [3, 11] of the same molecule?
A: Good

Q: What about the Prognosis [4, 9] of the same molecule?
A: Good

Q: And the Prognosis ([4]; finishing pigs, taurine dosage as in Embodiment 4 (300 mg per kilogram of body weight per day))?
A: Good

Q: And the Prognosis [4, 10]?
A: Good

Q: What about the Prognosis [4, 11] of the same molecule?
A: Good

Q: What about the Prognosis ([5]; care pigs) of the same molecule?
A: Excellent

Q: What about the Prognosis ([5]; finishing pigs) of the same molecule?
A: Excellent

Q: And the Prognosis ([5]; weaned piglets)?
A: Excellent

Q: What about the Prognosis [6, 9] of the same molecule?
A: General

Q: What about the “treatment effect on the pseudorabies viral diarrhea” value ([6]; summary in text of Table 5) of the same molecule?
A: no treatment effect

Q: Which “inhibition of replication of PEDV” value [7] does the source give for NC(=O)c1ncn([C@@H]2O[C@H](CO)[C@@H](O)[C@H]2O)n1 [Ribavirin] here?
A: capable of inhibiting replication of PEDV

Q: Which “improvement of survival rate” value [8] does the source give for povidone iodine here?
A: 5-10%

Q: And the “prognosis of survived suckling piglets” value [8]?
A: unfavourable prognosis
